These results are taken from publication PMC10795512 (Cell reports. Physical science, 2023).

One series deals with P. aeruginosa PA14. The experiment in a line: MIC, broth microdilution. It is filed as cell-based, Pseudomonas aeruginosa. The settings on record: LB broth, 5 × 10^5 CFU mL^−1, 24 h at 37°C, OD 600 nm, three replicates. (In broth dilution the organism is exposed to a series of concentrations in liquid medium.)
A further series has as its system E. coli ATCC 11775. The series is described as follows: MIC, broth microdilution. It is filed as cell-based, Escherichia coli. The settings on record: LB broth, 5 × 10^5 CFU mL^−1, 24 h at 37°C, OD 600 nm, three replicates.
The test system of another series is S. aureus ATCC 12600. The experiment in a line: MIC, broth microdilution. It is filed as cell-based, Staphylococcus aureus. The settings on record: LB broth, 5 × 10^5 CFU mL^−1, 24 h at 37°C, OD 600 nm, three replicates.
The subject of series [1] is P. aeruginosa PAO1. The experiment in a line: MIC, broth microdilution. It is filed as cell-based, Pseudomonas aeruginosa. The conditions noted are these: LB broth, 5 × 10^5 CFU mL^−1, 24 h at 37°C, OD 600 nm, three replicates.
Series [2] concerns primary human keratinocytes. The experiment in a line: Cytotoxicity, XTT assay. It is filed as cell-based. The settings on record: for toxicity: at the highest concentration tested, 64 μmol L^−1, 24 h. In general terms: Tetrazolium assays rely on reduction of a dye to a coloured formazan, in cell work by metabolically active cells.
Series [3] has as its system human embryonic kidney (HEK) cells (ATCC HEK293T). The series is described as follows: Cytotoxicity, XTT assay. It is filed as cell-based.
The next series has as its system mouse erythrocytes. The conditions noted are these: at a concentration of 10^−4 mol L^−1; cited from earlier work.
A further series concerns human erythrocytes. The conditions noted are these: at a concentration of 10^−4 mol L^−1; cited from earlier work.
Series [4] deals with P. aeruginosa PAO1. The experiment in a line: Synergy. It is filed as cell-based, Pseudomonas aeruginosa. The conditions noted are these: checkerboard; for FICI, combined with PMB: 2- to 0.03-fold MIC, 24 h at 37°C, three replicates; for FICI, WT1 and WT2 in combination: different concentrations.
Series [5] deals with E. coli JW2703 (hypermutant strain) ΔmutS::kan. The experiment in a line: Resistance development assay. It is filed as cell-based, Escherichia coli. The settings on record: over the same period (20 days).

Where no end group is shown, it is not given here.

The MIC is the least concentration at which growth counts as inhibited. Low values mean inhibition by little substance, high ones a need for much substance. On to AKLMGIVKKVLGAL-NH2 [A1–1], for which the MIC was 16 µM with P. aeruginosa PA14, 4 µM against E. coli ATCC 11775, 8 µM in the series on S. aureus ATCC 12600 and 16 µM in the series with P. aeruginosa PAO1 [1].
For the substance LKLAGIVKKVLGAL-NH2 [A4–1], the MIC was found to be 4 µM in the series with E. coli ATCC 11775 and 8 µM against S. aureus ATCC 12600.
Take LKLLAIVKKVLGAI-NH2 [A5–2]: the MIC against E. coli ATCC 11775 and in the series on S. aureus ATCC 12600 was 4 µM in each case.
With LKLLGIVKKKLGAI-NH2 [K10–2], the MIC turned out to be 8 µM with P. aeruginosa PA14, 4 µM against E. coli ATCC 11775, 8 µM in the series with S. aureus ATCC 12600 and 4 µM in the series on P. aeruginosa PAO1 [1]. In [2] (at 8 μmol L^−1, 24 h), the cell viability remaining turned out to be 92%. For the same substance, the toxicity result in series [3] (at 16 μmol L^−1, 24 h) is recorded as “no toxicity”.
With LKLLGIVKKVLAAI-NH2 [A12–2], the figures for the MIC in the series on E. coli ATCC 11775 and in the series on S. aureus ATCC 12600 were 4 µM and 2 µM, respectively.
Take “LKLLGIVKKVLGAI-NH2 [WT2, reference compound]”: the hemolytic activity entry in the series on mouse erythrocytes and with human erythrocytes was “hemolytic activity” each time. Further, the MIC in the series on P. aeruginosa PA14 amounted to 64 µM; with E. coli ATCC 11775, 16 µM; in the series with S. aureus ATCC 12600 it was 32 µM; in the series with P. aeruginosa PAO1 [1] it was 32 µM. For the same substance, the “FICI, combined with PMB” value in the series with P. aeruginosa PAO1 [4] was found to be 0.5. Besides, the “FICI, WT1 and WT2 in combination” value with P. aeruginosa PAO1 [4] is given as 0.7.
With LKLLGIVKKVLGKI-NH2 [K13–2], the MIC against P. aeruginosa PA14 turned out to be 16 µM; with E. coli ATCC 11775, 4 µM; with P. aeruginosa PAO1 [1] it was 4 µM. Further, the toxicity result in series [2] is recorded as “low toxicity”; in [3] (any of the concentrations tested (1 to 64 μmol L^−1), 24 h), “no toxicity”.
Take LKLMAIVKKVLGAL-NH2 [A5–1]: the MIC in the series on E. coli ATCC 11775 and against S. aureus ATCC 12600 was 4 µM throughout.
For the substance LKLMGIVKKVLAAL-NH2 [A12–1], the MIC with E. coli ATCC 11775 and against S. aureus ATCC 12600 was 2 µM each time.
Consider “LKLMGIVKKVLGAL-NH2 [WT1, reference compound]”, for which the hemolytic activity result with mouse erythrocytes and in the series with human erythrocytes was “hemolytic activity” throughout. For the same substance, the MIC was determined as 32 µM in the series on P. aeruginosa PA14, 8 µM in the series with E. coli ATCC 11775, 16 µM against S. aureus ATCC 12600 and 32 µM against P. aeruginosa PAO1 [1]. In addition, the “FICI, combined with PMB” value in the series with P. aeruginosa PAO1 [4] is recorded as 0.7. Moreover, the “FICI, WT1 and WT2 in combination” value in the series with P. aeruginosa PAO1 [4] amounted to 0.7.
As for LKLMGIVKKVLGKL-NH2 [K13–1], the MIC in the series on P. aeruginosa PA14 was 16 µM; with E. coli ATCC 11775, 4 µM; against S. aureus ATCC 12600 it was 128 µM; in the series on P. aeruginosa PAO1 [1], 8 µM. Also, the toxicity result in series [2] is listed as “low toxicity”; in series [3] (at 4-fold MIC, 24 h), “toxic”. Further, in the series with P. aeruginosa PAO1 [4], the “FICI, combined with PMB” value came to 0.6.
Turning to polymyxin B [PMB], the “change of MIC during resistance assay” value in series [5] is recorded as “did not vary significantly”.
